Reference: patent US9409907B2, “Inhibitor compounds” (Cancer Research Technology Limited, priority 2012, dated 2016)

target: full length MPS1 (Homo sapiens (Human), UniProt P33981); test: Measurement of inhibition of MPS1 kinase (Caliper EZ reader mobility-shift enzyme assay); assay type: biochemical; settings: full length MPS1 12.5 nM or 3 nM, H236 peptide 5 μM, ATP 10 μM, 60 min at room temperature
Description: Measurement of Inhibition of MPS1 Kinase
The reaction was carried out for 60 min at room temperature and stopped by the addition of buffer (10 μl) containing 20 mM EDTA, 0.05% (v/v) Brij-35, in 0.1M HEPES-buffered saline (Free acid, Sigma, UK). The plate was read on a Caliper EZ reader II (Caliper Life Sciences).
The % inhibition of the compounds is calculated relative to the means of selected control wells.

Chain of full length MPS1 (P33981 whole entry): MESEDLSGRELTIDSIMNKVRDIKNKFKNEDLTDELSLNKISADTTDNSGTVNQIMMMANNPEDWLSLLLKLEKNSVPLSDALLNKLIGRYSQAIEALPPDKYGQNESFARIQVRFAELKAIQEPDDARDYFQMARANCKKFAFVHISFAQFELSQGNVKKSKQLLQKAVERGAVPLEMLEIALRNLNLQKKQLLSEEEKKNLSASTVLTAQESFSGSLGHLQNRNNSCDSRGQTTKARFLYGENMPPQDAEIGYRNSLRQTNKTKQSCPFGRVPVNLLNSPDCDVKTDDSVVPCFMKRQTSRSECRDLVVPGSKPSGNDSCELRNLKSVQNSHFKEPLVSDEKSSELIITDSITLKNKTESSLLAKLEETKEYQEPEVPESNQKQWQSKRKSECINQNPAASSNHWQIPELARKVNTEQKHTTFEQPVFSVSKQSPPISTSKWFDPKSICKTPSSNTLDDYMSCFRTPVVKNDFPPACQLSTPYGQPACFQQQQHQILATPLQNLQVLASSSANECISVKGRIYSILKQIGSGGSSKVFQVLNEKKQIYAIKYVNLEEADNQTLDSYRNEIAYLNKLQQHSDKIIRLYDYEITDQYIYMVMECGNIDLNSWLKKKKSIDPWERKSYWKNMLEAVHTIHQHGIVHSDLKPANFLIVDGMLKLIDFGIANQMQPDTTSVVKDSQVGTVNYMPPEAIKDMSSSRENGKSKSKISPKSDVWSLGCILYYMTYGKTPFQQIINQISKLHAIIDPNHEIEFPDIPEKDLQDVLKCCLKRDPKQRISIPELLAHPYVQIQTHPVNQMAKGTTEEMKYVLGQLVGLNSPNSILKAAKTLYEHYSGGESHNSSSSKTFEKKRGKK

Structure (SMILES)	IC50
COc1cc(-c2cnn(C)c2)ccc1Nc1ncc2ccnc(NCC(C)(F)F)c2n1 [Example 84, N8-(2,2-difluoropropyl)-N2-(2-methoxy-4-(1-methyl-1H-pyrazol-4-yl)phenyl)pyrido[3,4-d]pyrimidine-2,8-diamine]	14 nM
COCC(C)(C)CNc1nccc2cnc(Nc3ccc(-c4cnn(C)c4)cc3OC)nc12 [Example 85, N8-(3-methoxy-2,2-dimethylpropyl)-N2-(2-methoxy-4-(1-methyl-1H-pyrazol-4-yl)phenyl)pyrido[3,4-d]pyrimidine-2,8-diamine]	24 nM
COc1cc(-c2cnn(C)c2)ccc1Nc1ncc2ccnc(NCC(C)(C)OC)c2n1 [Example 86, N8-(2-methoxy-2-methylpropyl)-N2-(2-methoxy-4-(1-methyl-1H-pyrazol-4-yl)phenyl)pyrido[3,4-d]pyrimidine-2,8-diamine]	5 nM
COc1cc(-c2cnn(C)c2)ccc1Nc1ncc2ccnc(NCC(F)(F)F)c2n1 [Example 87, N2-(2-methoxy-4-(1-methyl-1H-pyrazol-4-yl)phenyl)-N8-(2,2,2-trifluoroethyl)pyrido[3,4-d]pyrimidine-2,8-diamine]	75 nM
COc1cc(-c2cnn(C)c2)ccc1Nc1ncc2ccnc(N3CCC4(COC4)C3)c2n1 [Example 88, N-(2-methoxy-4-(1-methyl-1H-pyrazol-4-yl)phenyl)-8-(2-oxa-6-azaspiro[3.4]oxtan-6-yl)pyrido[3,4-d]pyrimidin-2-amine]	3 nM
CCn1cc(-c2nccc3cnc(Nc4ccc(-c5cnn(C)c5)cc4OC)nc23)cn1 [Example 91, 8-(1-ethyl-1H-pyrazol-4-yl)-N-(2-methoxy-4-(1-methyl-1H-pyrazol-4-yl)phenyl)pyrido[3,4-d]pyrimidin-2-amine]	10 nM
COc1cc(-c2cnn(C)c2)ccc1Nc1ncc2ccnc(-c3cnn(C(C)C)c3)c2n1 [Example 92, 8-(1-isopropyl-1H-pyrazol-4-yl)-N-(2-methoxy-4-(1-methyl-1H-pyrazol-4-yl)phenyl)pyrido[3,4-d]pyrimidin-2-amine]	14 nM
COc1cc(-c2cnn(C)c2)ccc1Nc1ncc2ccnc(-c3cnn(CC(F)F)c3)c2n1 [Example 93, 8-(1-(2,2-difluoroethyl)-1H-pyrazol-4-yl)-N-(2-methoxy-4-(1-methyl-1H-pyrazol-4-yl)phenyl)pyrido[3,4-d]pyrimidin-2-amine]	10 nM
Cc1cc(-c2cnn(C)c2)ccc1Nc1ncc2ccnc(NCC3CC3)c2n1 [Example 99, N8-(cyclopropylmethyl)-N2-(2-methyl-4-(1-methyl-1H-pyrazol-4-yl)phenyl)pyrido[3,4-d]pyrimidine-2,8-diamine]	8 nM
CCOc1cc(-c2cnn(C)c2)ccc1Nc1ncc2ccnc(NCC3CC3)c2n1 [Example 101, N8-(cyclopropylmethyl)-N2-(2-ethoxy-4-(1-methyl-1H-pyrazol-4-yl)phenyl)pyrido[3,4-d]pyrimidine-2,8-diamine]	49 nM
COc1cc(-c2cnn(C)c2)ccc1Nc1cc2c(-c3cnn(C)c3)nccc2cn1 [Example 103, N-(2-methoxy-4-(1-methyl-1H-pyrazol-4-yl)phenyl)-5-(1-methyl-1H-pyrazol-4-yl)-2,6-naphthyridin-3-amine]	12 nM
COc1cc(-c2cnc(C)n2C)ccc1Nc1cc2c(-c3cnn(C)c3)nccc2cn1 [Example 104, N-(4-(1,2-dimethyl-1H-imidazol-5-yl)-2-methoxyphenyl)-5-(1-methyl-1H-pyrazol-4-yl)-2,6-naphthyridin-3-amine]	7 nM
COc1cc(-c2cnn(C)c2)ccc1Nc1cc2c(NC3CCCCC3)nccc2cn1 [Example 105, N1-cyclohexyl-N7-(2-methoxy-4-(1-methyl-1H-pyrazol-4-yl)phenyl)-2,6-naphthyridine-1,7-diamine]	56 nM
COc1cc(-c2cnn(C)c2)ccc1Nc1cc2c(NCC3CC3)nccc2cn1 [Example 106, N1-(cyclopropylmethyl)-N7-(2-methoxy-4-(1-methyl-1H-pyrazol-4-yl)phenyl)-2,6-naphthyridine-1,7-diamine]	82 nM
COc1cc(-c2cnn(C)c2)ccc1Nc1ncc2ccnc(NS(=O)(=O)C(C)(C)C)c2n1 [Example 107, N-(2-(2-methoxy-4-(1-methyl-1H-pyrazol-4-yl)phenylamino)pyrido[3,4-d]pyrimidin-8-yl)-2-methylpropane-2-sulfonamide]	39 nM
COc1cc(-c2cnn(C)c2)ccc1Nc1ncc2ccnc(N(C)C)c2n1 [Example 108, N^2-(2-methoxy-4-(1-methyl-1H-pyrazol-4-yl)phenyl)-N^8,N^8-dimethylpyrido[3,4-d]pyrimidine-2,8-diamine]	16 nM
COc1cc(-c2cnn(C)c2)ccc1Nc1ncc2ccnc(NC(C)(C)CO)c2n1 [Example 114]	17 nM
COc1cc(-c2cnn(C)c2)ccc1Nc1ncc2ccnc(N3CC4(COC4)C3)c2n1 [Example 115, N-(2-methoxy-4-(1-methyl-1H-pyrazol-4-yl)phenyl)-8-(2-oxa-6-azaspiro[3.3]heptan-6-yl)pyrido[3,4-d]pyrimidin-2-amine]	3 nM
COc1cc(-c2cnn(C)c2)ccc1Nc1ncc2ccnc(N3CC4(CCOCC4)C3)c2n1 [Example 119, N-(2-methoxy-4-(1-methyl-1H-pyrazol-4-yl)phenyl)-8-(7-oxa-2-azaspiro[3.5]nonan-2-yl)pyrido[3,4-d]pyrimidin-2-amine]	3 nM
COc1cc(-c2cnn(C)c2)ccc1Nc1ncc2ccnc(N3CC4(CCOC4)C3)c2n1 [Example 120, N-(2-methoxy-4-(1-methyl-1H-pyrazol-4-yl)phenyl)-8-(6-oxa-2-azaspiro[3.4]octan-2-yl)pyrido[3,4-d]pyrimidin-2-amine]	3 nM
COc1cc(-c2cnn(C)c2)ccc1Nc1ncc2ccnc(N3CC(C#N)C3)c2n1 [Example 121, 1-(2-(2-methoxy-4-(1-methyl-1H-pyrazol-4-yl)phenylamino)pyrido[3,4-d]pyrimidin-8-yl)azetidine-3-carbonitrile]	8 nM
COc1cc(-c2cnn(C)c2)ccc1Nc1ncc2ccnc(N3CCC4(CCOC4)C3)c2n1 (centres unmarked) [Example 122, N-(2-methoxy-4-(1-methyl-1H-pyrazol-4-yl)phenyl)-8-(2-oxa-7-azaspiro[4.4]nonan-7-yl)pyrido[3,4-d]pyrimidin-2-amine]	3 nM
COc1cc(-c2cnn(C)c2)ccc1Nc1ncc2ccnc(N3CCCC4(COC4)C3)c2n1 [Example 123, N-(2-methoxy-4-(1-methyl-1H-pyrazol-4-yl)phenyl)-8-(2-oxa-6-azaspiro[3.5]nonan-6-yl)pyrido[3,4-d]pyrimidin-2-amine]	11 nM
COc1cc(-c2cnn(C)c2)ccc1Nc1ncc2ccnc(NCC3(F)COC3)c2n1 [Example 124, N^8-((3-fluorooexetan-3-yl)methyl)-N^2-(2-methoxy-4-(1-methyl-1H-pyrazol-4-yl)phenyl)pyrido[3,4-d]pyrimidine-2,8-diamine]	> 1000 nM

Now from value to compound:

IC50	Structure (SMILES)
7 nM	COc1cc(-c2cnn(C)c2)ccc1Nc1ncc2ccnc(NCC3(O)CCC3)c2n1 [Example 89, 1-((2-(2-methoxy-4-(1-methyl-1H-pyrazol-4-yl)phenylamino)pyrido[3,4-d]pyrimidin-8-ylamino)methyl)cyclobutanol]
164 nM	COc1cc(-c2cnn(C)c2)ccc1Nc1ncc2ccnc(Cl)c2n1 [Example 94, 8-chloro-N-(2-methoxy-4-(1-methyl-1H-pyrazol-4-yl)phenyl)pyrido[3,4-d]pyrimidin-2-amine]
10 nM	CCOc1cc(-c2cnn(C)c2)ccc1Nc1ncc2ccnc(NC3CCOCC3)c2n1 [Example 102, N2-(2-ethoxy-4-(1-methyl-1H-pyrazol-4-yl)phenyl)-N8-(tetrahydro-2H-pyran-4-yl)pyrido[3,4-d]pyrimidine-2,8-diamine]
2 nM	COc1cc(-c2cnn(C)c2)ccc1Nc1ncc2ccnc(NCC3(C)COC3)c2n1 [Example 109, N^2-(2-methoxy-4-(1-methyl-1H-pyrazol-4-yl)phenyl)-N^8-((3-methyloxetan-3-yl)methyl)pyrido(3,4-d]pyrimidine-2,8-diamine]
17 nM	CNc1nccc2cnc(Nc3ccc(-c4cnn(C)c4)cc3OC)nc12 [Example 110, N^2-(2-methoxy-4-(1-methyl-1H-pyrazol-4-yl)phenyl)-N^8-methylpyrido[3,4-d]pyrimidine-2,8-diamine]
> 1000 nM	COc1cc(-c2cnn(C)c2)ccc1Nc1ncc2ccnc(NC3COC3)c2n1 [Example 111, N^2-(2-methoxy-4-(1-methyl-1H-pyrazol-4-yl)phenyl)-N^8-(oxetan-3-yl)pyrido[3,4-d]pyrimidine-2,8-diamine]
5 nM	COc1cc(-c2cnn(C)c2)ccc1Nc1ncc2ccnc(NCC3(O)CC3)c2n1 [Example 112, 1-((2-(2-methoxy-4-(1-methyl-1H-pyrazol-4-yl)phenylamino)pyrido[3,4-d]pyrimidin-8-ylamino)methyl)cyclopropanol]
9 nM	COc1cc(-c2cnn(C)c2)ccc1Nc1ncc2ccnc(NC3CCN(C)CC3)c2n1 [Example 113, N^2-(2-methoxy-4-(1-methyl-1H-pyrazol-4-yl)phenyl)-N^8-(1-methylpiperidin-4-yl)pyrido[3,4-d]pyrimidine-2,8-diamine]
8 nM	COc1cc(-c2cnn(C)c2)ccc1Nc1ncc2ccnc(NCC3CCO3)c2n1 (centres unmarked) [Example 116, N^2-(2-methoxy-4-(1-methyl-1H-pyrazol-4-yl)phenyl)-N8-(oxetan-2-ylmethyl)pyrido[3,4-d]pyrimidine-2,8-diamine]
11 nM	COc1cc(-c2cnn(C)c2)ccc1Nc1ncc2ccnc(N3CCS(=O)(=O)CC3)c2n1 [Example 118, 4-(2-((2-methoxy-4-(1-methyl-1H-pyrazol-4-yl)phenyl)amino)pyrido[3,4-d]pyrimidin-8-yl)thiomorpholine 1,1-dioxide]
11 nM	COc1cc(-c2cnn(C)c2)ccc1Nc1ncc2ccnc(NCCO)c2n1 [Example 126, 2-(2-(2-Methoxy-4-(1-methyl-1H-pyrazol-4-yl)phenylamino)pyrido[3,4-d]pyrimidin-8-ylamino)ethanol]
